In assay [1] the target is Tyrosine-protein kinase SYK (Homo sapiens, UniProt P43405).
Another assay addresses T1, Activin receptor type-1B (Homo sapiens, UniProt P36896).
T1 sequence (P36896 whole entry): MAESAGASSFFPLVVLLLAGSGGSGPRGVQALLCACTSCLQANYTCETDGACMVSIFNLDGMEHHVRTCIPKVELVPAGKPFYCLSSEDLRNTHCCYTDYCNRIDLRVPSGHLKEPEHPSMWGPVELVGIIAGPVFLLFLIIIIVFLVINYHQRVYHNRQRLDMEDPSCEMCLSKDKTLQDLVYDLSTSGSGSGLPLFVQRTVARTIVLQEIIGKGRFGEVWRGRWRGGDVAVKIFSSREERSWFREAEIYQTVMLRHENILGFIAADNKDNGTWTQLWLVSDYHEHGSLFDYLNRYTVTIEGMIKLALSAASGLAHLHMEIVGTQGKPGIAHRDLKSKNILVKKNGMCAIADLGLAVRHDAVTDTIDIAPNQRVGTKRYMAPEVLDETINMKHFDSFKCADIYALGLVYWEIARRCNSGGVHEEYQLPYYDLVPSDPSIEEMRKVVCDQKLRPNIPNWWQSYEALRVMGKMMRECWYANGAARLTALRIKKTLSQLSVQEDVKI

Assay [2] addresses T2, Serine/threonine-protein kinase PLK4 (Homo sapiens, UniProt O00444).
T2 sequence (O00444 whole entry): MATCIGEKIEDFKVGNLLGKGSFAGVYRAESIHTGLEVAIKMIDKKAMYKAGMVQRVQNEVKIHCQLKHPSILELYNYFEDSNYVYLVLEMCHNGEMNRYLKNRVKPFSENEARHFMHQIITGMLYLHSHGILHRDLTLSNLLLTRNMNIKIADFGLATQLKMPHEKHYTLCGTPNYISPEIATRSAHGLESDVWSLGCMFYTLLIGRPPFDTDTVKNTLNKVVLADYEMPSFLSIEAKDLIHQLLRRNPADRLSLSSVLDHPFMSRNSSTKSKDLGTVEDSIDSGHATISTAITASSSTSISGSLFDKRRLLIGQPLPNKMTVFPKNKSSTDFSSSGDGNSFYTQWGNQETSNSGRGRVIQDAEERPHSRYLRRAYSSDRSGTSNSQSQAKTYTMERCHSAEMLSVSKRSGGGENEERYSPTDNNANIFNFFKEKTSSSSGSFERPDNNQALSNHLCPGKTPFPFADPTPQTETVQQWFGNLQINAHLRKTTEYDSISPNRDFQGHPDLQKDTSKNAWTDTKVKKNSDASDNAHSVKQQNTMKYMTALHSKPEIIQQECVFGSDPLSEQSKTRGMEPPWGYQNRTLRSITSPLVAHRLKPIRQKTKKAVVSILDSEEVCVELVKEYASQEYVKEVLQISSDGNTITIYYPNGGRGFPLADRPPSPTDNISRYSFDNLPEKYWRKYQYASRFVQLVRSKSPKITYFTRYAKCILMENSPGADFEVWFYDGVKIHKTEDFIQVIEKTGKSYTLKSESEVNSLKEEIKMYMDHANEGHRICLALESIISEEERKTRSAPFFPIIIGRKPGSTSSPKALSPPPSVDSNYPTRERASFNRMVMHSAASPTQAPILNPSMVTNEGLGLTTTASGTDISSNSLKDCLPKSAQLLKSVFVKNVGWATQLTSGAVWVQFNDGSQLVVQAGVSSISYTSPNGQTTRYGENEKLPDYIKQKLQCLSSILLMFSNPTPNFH

The target in assay [3] is Adenylate kinase 2, mitochondrial (Homo sapiens, UniProt P54819).
Assay [4] has as its target T3, AarF domain-containing protein kinase 1 (Homo sapiens, UniProt Q86TW2).
T3 sequence (Q86TW2 whole entry): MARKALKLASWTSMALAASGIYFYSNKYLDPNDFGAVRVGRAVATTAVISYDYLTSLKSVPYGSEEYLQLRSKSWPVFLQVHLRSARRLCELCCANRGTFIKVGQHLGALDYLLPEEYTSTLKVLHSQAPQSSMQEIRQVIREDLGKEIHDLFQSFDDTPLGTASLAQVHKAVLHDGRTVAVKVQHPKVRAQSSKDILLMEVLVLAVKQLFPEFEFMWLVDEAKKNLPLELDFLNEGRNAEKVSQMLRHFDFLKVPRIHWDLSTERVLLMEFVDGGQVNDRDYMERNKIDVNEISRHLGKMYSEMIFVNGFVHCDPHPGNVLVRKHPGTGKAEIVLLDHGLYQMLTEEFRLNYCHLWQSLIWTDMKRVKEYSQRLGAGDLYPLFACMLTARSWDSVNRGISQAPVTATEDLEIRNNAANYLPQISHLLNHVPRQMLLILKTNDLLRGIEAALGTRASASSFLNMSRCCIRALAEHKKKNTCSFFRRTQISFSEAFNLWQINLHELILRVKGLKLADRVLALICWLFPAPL

For assay [5], the target named is T4, Beta-adrenergic receptor kinase 1 (Homo sapiens, UniProt P25098).
T4 sequence (P25098 whole entry): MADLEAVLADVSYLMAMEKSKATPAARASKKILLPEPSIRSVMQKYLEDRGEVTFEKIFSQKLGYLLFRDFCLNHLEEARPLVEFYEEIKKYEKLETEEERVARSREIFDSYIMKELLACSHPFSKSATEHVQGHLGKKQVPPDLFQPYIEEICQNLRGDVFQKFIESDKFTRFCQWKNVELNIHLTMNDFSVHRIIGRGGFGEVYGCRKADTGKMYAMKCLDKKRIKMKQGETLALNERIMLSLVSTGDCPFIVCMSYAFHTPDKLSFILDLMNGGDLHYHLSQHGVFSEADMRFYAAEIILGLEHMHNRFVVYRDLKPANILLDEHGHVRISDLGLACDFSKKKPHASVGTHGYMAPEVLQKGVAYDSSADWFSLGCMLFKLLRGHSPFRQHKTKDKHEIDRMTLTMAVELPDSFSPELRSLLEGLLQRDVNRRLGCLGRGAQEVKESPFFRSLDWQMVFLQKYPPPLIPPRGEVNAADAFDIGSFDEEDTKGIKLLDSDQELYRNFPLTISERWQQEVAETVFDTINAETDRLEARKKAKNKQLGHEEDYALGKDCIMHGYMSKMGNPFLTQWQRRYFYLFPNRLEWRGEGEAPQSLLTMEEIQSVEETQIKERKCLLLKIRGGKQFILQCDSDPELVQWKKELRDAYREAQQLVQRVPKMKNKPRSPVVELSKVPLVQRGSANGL

For assay [6], the target named is 26S proteasome regulatory subunit 6B (Homo sapiens, UniProt P43686).
26S proteasome regulatory subunit 6B, sequence (P43686 whole entry): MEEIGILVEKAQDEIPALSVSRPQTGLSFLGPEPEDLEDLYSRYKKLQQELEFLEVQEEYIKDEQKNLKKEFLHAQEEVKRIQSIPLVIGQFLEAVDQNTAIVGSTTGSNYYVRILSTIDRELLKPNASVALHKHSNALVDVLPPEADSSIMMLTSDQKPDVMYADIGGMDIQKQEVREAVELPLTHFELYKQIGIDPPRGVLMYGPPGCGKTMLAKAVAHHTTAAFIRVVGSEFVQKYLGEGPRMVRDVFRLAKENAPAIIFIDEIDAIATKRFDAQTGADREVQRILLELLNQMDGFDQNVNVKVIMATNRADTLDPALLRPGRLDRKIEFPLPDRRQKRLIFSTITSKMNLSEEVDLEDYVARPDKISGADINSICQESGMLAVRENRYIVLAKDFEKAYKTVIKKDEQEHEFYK

Among the data in ChEMBL document CHEMBL3991601, “The target landscape of clinical kinase drugs” (Science, 2017) are Kd values, retold here.

Active and inactive are the calls of the source. For most assays here, no stated cut-off is given here; in the data, actives have a measured Kd and inactives only a lower limit. Some results are limits rather than exact numbers.

Take `COc1cc2nccc(Oc3ccc(NC(=O)C4(C(=O)Nc5ccc(F)cc5)CC4)cc3)c2cc1OC` [CABOZANTINIB]: the Kd (in assay [1]; on Activin receptor type-1B; in assay [2]; in assay [3]; in assay [4]; in assay [5]) was > 30 µM (inactive) throughout. For the same compound, the Kd in assay [6] is > 30 µM (inactive).
Regarding `NC[C@@](O)(c1ccc(Cl)cc1)c1ccc(-c2cn[nH]c2)cc1` [AT-13148], the Kd in assay [1] is > 30 µM (inactive); at Activin receptor type-1B, > 30 µM (inactive); in assay [2], > 30 µM (inactive); in assay [3] it was > 30 µM (inactive); in assay [4] it was > 30 µM (inactive); in assay [5] it was 0.17 µM (active). Further, the Kd in assay [6] was > 30 µM (inactive).
